Experimental data taken from article PMC9090415, “Discovery of small molecule inhibitors of Plasmodium falciparum apicoplast DNA polymerase” (Journal of Enzyme Inhibition and Medicinal Chemistry, 2022).

Biological target: P. falciparum apicoplast DNA polymerase (Pf-apPOL) (Plasmodium falciparum, UniProt Q8ILY1)
Assay: Fluorescence-based high-throughput DNA polymerase assay (molecular beacon), primary screen and dose-response;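 on % inhibition ApPOL 90': test concentration in µM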;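 on % inhibition Apol 40': compound concentration given in µM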;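 on % inhibition apPOL 180': test concentration in µM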
Assay type: biochemical
Conditions: for DNA Pol: 90 min, 10 µM
Method in brief: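 Single-point screening used 10 µM compound with 20 nM polymerase, 20 nM hairpin substrate and 6 µM dNTPs for 90 min at 25 °C. Confirmatory titrations (2.5–80 µM) followed fluorescence at three times, and IC50 was derived from a fit including a cooperativity term n.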

[1] = 'DNA Pol' of the 186 hits list (primary screen value)
[2] = first dose-response set, concentration 10

Sequence of P. falciparum apicoplast DNA polymerase (Pf-apPOL) (Q8ILY1 entry or part of it): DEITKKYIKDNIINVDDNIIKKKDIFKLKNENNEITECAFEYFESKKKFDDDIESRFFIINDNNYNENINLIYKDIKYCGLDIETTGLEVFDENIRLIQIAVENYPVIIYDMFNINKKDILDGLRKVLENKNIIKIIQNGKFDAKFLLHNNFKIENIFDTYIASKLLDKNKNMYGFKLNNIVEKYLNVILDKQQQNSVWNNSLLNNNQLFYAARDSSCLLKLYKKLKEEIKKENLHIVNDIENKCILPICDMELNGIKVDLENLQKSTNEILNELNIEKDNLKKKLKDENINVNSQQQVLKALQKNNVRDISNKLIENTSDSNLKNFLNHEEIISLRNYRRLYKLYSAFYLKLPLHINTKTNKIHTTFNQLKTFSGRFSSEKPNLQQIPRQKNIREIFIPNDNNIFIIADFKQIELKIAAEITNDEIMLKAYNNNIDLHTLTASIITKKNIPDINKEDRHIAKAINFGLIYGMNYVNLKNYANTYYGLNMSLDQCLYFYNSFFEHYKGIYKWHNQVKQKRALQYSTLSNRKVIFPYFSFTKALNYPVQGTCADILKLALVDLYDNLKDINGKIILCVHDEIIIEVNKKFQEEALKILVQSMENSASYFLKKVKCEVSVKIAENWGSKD

Cc1cccc2c(C(=O)NC(C)C)cc(N(C)C)nc12 [Molecule 47, CC(NC(=O)c1cc(nc2c1cccc2C)N(C)C)C]
DNA Pol [1]: 22
DNA Pol (DNA Pol (primary screen value)): 22
% inhibition Apo pol 10' (DRC-1, concentration 2.5): 6.184%
% inhibition Apo pol 10' (DRC-1, concentration 5): 4.255%
% inhibition Apo pol 10' (DRC-1, concentration 10): 30.9701%
% inhibition Apo pol 10' (DRC-1, concentration 20): 57.6029%
% inhibition Apo pol 10' (DRC-1, concentration 40): 72.1055%
% inhibition Apo pol 10' (DRC-1, concentration 80): 75.9231%
% inhibition Apol 90' (DRC-1, concentration 2.5): 2.22%
% inhibition Apol 90' (DRC-1, concentration 5): 0.7023%
% inhibition Apol 90' (DRC-1, concentration 10): 20.6995%
% inhibition Apol 90' (DRC-1, concentration 20): 44.2849%
% inhibition Apol 90' (DRC-1, concentration 40): 67.2168%
% inhibition Apol 90' (DRC-1, concentration 80): 75.4674%
% inhibition apPOL 180' (DRC-1, concentration 2.5): 2.5191%
% inhibition apPOL 180' (DRC-1, concentration 5): -0.7995%
% inhibition apPOL 180' (DRC-1, concentration 10): 11.775%
% inhibition apPOL 180' (DRC-1, concentration 20): 29.3384%
% inhibition apPOL 180' (DRC-1, concentration 40): 56.4011%
% inhibition apPOL 180' (DRC-1, concentration 80): 69.9021%
% inhibition Apo pol 5' (DRC-2, concentration 2.5): 7%
% inhibition Apo pol 5' (DRC-2, concentration 5): 13%
% inhibition Apo pol 5' (DRC-2, concentration 10): 21%
% inhibition Apo pol 5' (DRC-2, concentration 20): 37%
% inhibition Apo pol 5' (DRC-2, concentration 40): 47%
% inhibition Apo pol 5' (DRC-2, concentration 80): 35%
% inhibition Apol 40' (DRC-2, concentration 2.5): 6.48%
% inhibition Apol 40' (DRC-2, concentration 5): 14%
% inhibition Apol 40' (DRC-2, concentration 10): 25%
% inhibition Apol 40' (DRC-2, concentration 20): 43%
% inhibition Apol 40' (DRC-2, concentration 40): 62%
% inhibition Apol 40' (DRC-2, concentration 80): 58%
% inhibition ApPOL 90' (DRC-2, concentration 2.5): 6%
% inhibition ApPOL 90' (DRC-2, concentration 5): 11%
% inhibition ApPOL 90' (DRC-2, concentration 10): 21%
% inhibition ApPOL 90' (DRC-2, concentration 20): 41%
% inhibition ApPOL 90' (DRC-2, concentration 40): 64%
% inhibition ApPOL 90' (DRC-2, concentration 80): 63%
% inhibition apPOL 180' (DRC-2, concentration 2.5): 1.25%
% inhibition apPOL 180' (DRC-2, concentration 5): 6.35%
% inhibition apPOL 180' (DRC-2, concentration 10): 14%
% inhibition apPOL 180' (DRC-2, concentration 20): 31%
% inhibition apPOL 180' (DRC-2, concentration 40): 60%
% inhibition apPOL 180' (DRC-2, concentration 80): 66%

COc1ccc(C(=O)N2CCc3c(nc4cc(-c5ccccc5Cl)[nH]n4c3=O)C2)cn1 [Molecule 26, COc1ccc(cn1)C(=O)N1CCc2c(C1)nc1n(c2=O)[nH]c(c1)c1ccccc1Cl]
DNA Pol [1]: 36
DNA Pol (DNA Pol (primary screen value)): 36
% inhibition Apo pol 10' (DRC-1, concentration 2.5): 0.687%
% inhibition Apo pol 10' (DRC-1, concentration 5): 20%
% inhibition Apo pol 10' (DRC-1, concentration 10): 48%
% inhibition Apo pol 10' (DRC-1, concentration 20): 85%
% inhibition Apo pol 10' (DRC-1, concentration 40): 91%
% inhibition Apo pol 10' (DRC-1, concentration 80): 87%
% inhibition Apol 90' (DRC-1, concentration 2.5): -2.83%
% inhibition Apol 90' (DRC-1, concentration 5): 11%
% inhibition Apol 90' (DRC-1, concentration 10): 33%
% inhibition Apol 90' (DRC-1, concentration 20): 74%
% inhibition Apol 90' (DRC-1, concentration 40): 82%
% inhibition Apol 90' (DRC-1, concentration 80): 82%
% inhibition apPOL 180' (DRC-1, concentration 2.5): -5.33%
% inhibition apPOL 180' (DRC-1, concentration 5): 3.47%
% inhibition apPOL 180' (DRC-1, concentration 10): 20%
% inhibition apPOL 180' (DRC-1, concentration 20): 60%
% inhibition apPOL 180' (DRC-1, concentration 40): 70%
% inhibition apPOL 180' (DRC-1, concentration 80): 71%
% inhibition Apo pol 5' (DRC-2, concentration 2.5): 7%
% inhibition Apo pol 5' (DRC-2, concentration 5): 7%
% inhibition Apo pol 5' (DRC-2, concentration 10): 28%
% inhibition Apo pol 5' (DRC-2, concentration 20): 47%
% inhibition Apo pol 5' (DRC-2, concentration 40): 54%
% inhibition Apo pol 5' (DRC-2, concentration 80): 47%
% inhibition Apol 40' (DRC-2, concentration 2.5): 6.48%
% inhibition Apol 40' (DRC-2, concentration 5): 6.59%
% inhibition Apol 40' (DRC-2, concentration 10): 30%
% inhibition Apol 40' (DRC-2, concentration 20): 56%
% inhibition Apol 40' (DRC-2, concentration 40): 64%
% inhibition Apol 40' (DRC-2, concentration 80): 62%
% inhibition ApPOL 90' (DRC-2, concentration 2.5): 6%
% inhibition ApPOL 90' (DRC-2, concentration 5): 4.56%
% inhibition ApPOL 90' (DRC-2, concentration 10): 28%
% inhibition ApPOL 90' (DRC-2, concentration 20): 56%
% inhibition ApPOL 90' (DRC-2, concentration 40): 63%
% inhibition ApPOL 90' (DRC-2, concentration 80): 63%
% inhibition apPOL 180' (DRC-2, concentration 2.5): 3.22%
% inhibition apPOL 180' (DRC-2, concentration 5): 3%
% inhibition apPOL 180' (DRC-2, concentration 10): 20%
% inhibition apPOL 180' (DRC-2, concentration 20): 48%
% inhibition apPOL 180' (DRC-2, concentration 40): 55%
% inhibition apPOL 180' (DRC-2, concentration 80): 57%
% inhibition Apo pol 10' (first dose-response set, concentration 5): 20%
% inhibition Apo pol 10' [2]: 48%
% inhibition Apol 90' (first dose-response set, concentration 40): 82%
% inhibition Apol 90' (first dose-response set, concentration 80): 82%
% inhibition apPOL 180' [2]: 20%

COc1ccc(-c2n[nH]cc2Oc2ccc(Cl)cc2)c(O)c1 [KU0029837]
DNA Pol ("DNA Pol" of the 186 hits list (screen value)): 54
% inhibition Apo pol 10' (DRC-1, concentration 2.5): 13.0965%
% inhibition Apo pol 10' (DRC-1, concentration 5): 22.8396%
% inhibition Apo pol 10' (DRC-1, concentration 10): 52.0762%
% inhibition Apo pol 10' (DRC-1, concentration 20): 64.1383%
% inhibition Apo pol 10' (DRC-1, concentration 40): 82.54%
% inhibition Apo pol 10' (DRC-1, concentration 80): 88.9574%
% inhibition Apol 90' (DRC-1, concentration 2.5): 6.836%
% inhibition Apol 90' (DRC-1, concentration 5): 14.8627%
% inhibition Apol 90' (DRC-1, concentration 10): 39.7229%
% inhibition Apol 90' (DRC-1, concentration 20): 52.6198%
% inhibition Apol 90' (DRC-1, concentration 40): 73.85%
% inhibition Apol 90' (DRC-1, concentration 80): 85.1708%
% inhibition apPOL 180' (DRC-1, concentration 2.5): 2.031%
% inhibition apPOL 180' (DRC-1, concentration 5): 3.615%
% inhibition apPOL 180' (DRC-1, concentration 10): 25.5956%
% inhibition apPOL 180' (DRC-1, concentration 20): 36.8517%
% inhibition apPOL 180' (DRC-1, concentration 40): 62.2191%
% inhibition apPOL 180' (DRC-1, concentration 80): 78.7822%
% inhibition Apo pol 5' (DRC-2, concentration 2.5): 15%
% inhibition Apo pol 5' (DRC-2, concentration 5): 23%
% inhibition Apo pol 5' (DRC-2, concentration 10): 39%
% inhibition Apo pol 5' (DRC-2, concentration 20): 43%
% inhibition Apo pol 5' (DRC-2, concentration 40): 51%
% inhibition Apo pol 5' (DRC-2, concentration 80): 51%
% inhibition Apol 40' (DRC-2, concentration 2.5): 15%
% inhibition Apol 40' (DRC-2, concentration 5): 27%
% inhibition Apol 40' (DRC-2, concentration 10): 46%
% inhibition Apol 40' (DRC-2, concentration 20): 55%
% inhibition Apol 40' (DRC-2, concentration 40): 69%
% inhibition Apol 40' (DRC-2, concentration 80): 72%
% inhibition ApPOL 90' (DRC-2, concentration 2.5): 13%
% inhibition ApPOL 90' (DRC-2, concentration 5): 24%
% inhibition ApPOL 90' (DRC-2, concentration 10): 44%
% inhibition ApPOL 90' (DRC-2, concentration 20): 53%
% inhibition ApPOL 90' (DRC-2, concentration 40): 71%
% inhibition ApPOL 90' (DRC-2, concentration 80): 74%
% inhibition apPOL 180' (DRC-2, concentration 2.5): 2.39%
% inhibition apPOL 180' (DRC-2, concentration 5): 13%
% inhibition apPOL 180' (DRC-2, concentration 10): 32%
% inhibition apPOL 180' (DRC-2, concentration 20): 43%
% inhibition apPOL 180' (DRC-2, concentration 40): 66%
% inhibition apPOL 180' (DRC-2, concentration 80): 74%
DNA Pol (primary screen value, DNA Pol): 54

COc1ccc(CNC(=O)Cn2nc3c(c2NC(=O)Cc2cccs2)CSC3)cc1 [Molecule 55, COc1ccc(cc1)CNC(=O)Cn1nc2c(c1NC(=O)Cc1cccs1)CSC2]
DNA Pol [1]: 42
DNA Pol (DNA Pol (primary screen value)): 42
% inhibition Apo pol 10' (DRC-1, concentration 2.5): 7.186%
% inhibition Apo pol 10' (DRC-1, concentration 5): 13.7887%
% inhibition Apo pol 10' (DRC-1, concentration 10): 43.1349%
% inhibition Apo pol 10' (DRC-1, concentration 20): 61.7989%
% inhibition Apo pol 10' (DRC-1, concentration 40): 74.6193%
% inhibition Apo pol 10' (DRC-1, concentration 80): 82.9138%
% inhibition Apol 90' (DRC-1, concentration 2.5): -3.211%
% inhibition Apol 90' (DRC-1, concentration 5): 0.071%
% inhibition Apol 90' (DRC-1, concentration 10): 21.9926%
% inhibition Apol 90' (DRC-1, concentration 20): 39.7839%
% inhibition Apol 90' (DRC-1, concentration 40): 59.3907%
% inhibition Apol 90' (DRC-1, concentration 80): 77.3387%
% inhibition apPOL 180' (DRC-1, concentration 2.5): -10.7492%
% inhibition apPOL 180' (DRC-1, concentration 5): -8.12%
% inhibition apPOL 180' (DRC-1, concentration 10): 5.391%
% inhibition apPOL 180' (DRC-1, concentration 20): 18.5765%
% inhibition apPOL 180' (DRC-1, concentration 40): 40.1483%
% inhibition apPOL 180' (DRC-1, concentration 80): 66.9877%
% inhibition Apo pol 5' (DRC-2, concentration 2.5): -0.186%
% inhibition Apo pol 5' (DRC-2, concentration 5): -3.35%
% inhibition Apo pol 5' (DRC-2, concentration 10): 16%
% inhibition Apo pol 5' (DRC-2, concentration 20): 23%
% inhibition Apo pol 5' (DRC-2, concentration 40): 32%
% inhibition Apo pol 5' (DRC-2, concentration 80): 26%
% inhibition Apol 40' (DRC-2, concentration 2.5): -0.881%
% inhibition Apol 40' (DRC-2, concentration 5): -4.6%
% inhibition Apol 40' (DRC-2, concentration 10): 17%
% inhibition Apol 40' (DRC-2, concentration 20): 23%
% inhibition Apol 40' (DRC-2, concentration 40): 47%
% inhibition Apol 40' (DRC-2, concentration 80): 53%
% inhibition ApPOL 90' (DRC-2, concentration 2.5): -1.87%
% inhibition ApPOL 90' (DRC-2, concentration 5): -7%
% inhibition ApPOL 90' (DRC-2, concentration 10): 13%
% inhibition ApPOL 90' (DRC-2, concentration 20): 19%
% inhibition ApPOL 90' (DRC-2, concentration 40): 45%
% inhibition ApPOL 90' (DRC-2, concentration 80): 63%
% inhibition apPOL 180' (DRC-2, concentration 2.5): -6.63%
% inhibition apPOL 180' (DRC-2, concentration 5): -14%
% inhibition apPOL 180' (DRC-2, concentration 10): 1.41%
% inhibition apPOL 180' (DRC-2, concentration 20): 5%
% inhibition apPOL 180' (DRC-2, concentration 40): 35%
% inhibition apPOL 180' (DRC-2, concentration 80): 65%
